Reference: PubChem BioAssay (NCI)
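Dose response: 5 concentrations. Exposure: 48 h. Format: 96-well plates. Endpoint: linear interpolation; highest concentration if not reached. GI50: concentration for 50% inhibition of growth. At the TGI there is no net growth.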

Experiments:
Assay in all cases: NCI tumour cell line growth inhibition, 48 h
PC-3 prostate = test system: PC-3 prostate
A549 NSCLC = test system: A549 NSCLC
ACHN renal = test system: ACHN renal
COLO 205 colon = test system: COLO 205 colon
EKVX NSCLC = test system: EKVX NSCLC
HCT-15 colon = test system: HCT-15 colon
HOP-62 NSCLC = test system: HOP-62 NSCLC
HOP-92 NSCLC = test system: HOP-92 NSCLC
HS 578T breast = test system: HS 578T breast
HT29 colon = test system: HT29 colon
IGROV1 ovarian = test system: IGROV1 ovarian
LOX IMVI melanoma = test system: LOX IMVI melanoma
M14 melanoma = test system: M14 melanoma
MALME-3M melanoma = test system: MALME-3M melanoma
MDA-MB-231 breast = test system: MDA-MB-231 breast
MOLT-4 leukemia = test system: MOLT-4 leukemia
NCI-H460 lung = test system: NCI-H460 lung
NCI-H522 lung = test system: NCI-H522 lung
NCI/ADR-RES ovarian = test system: NCI/ADR-RES ovarian
OVCAR-3 ovarian = test system: OVCAR-3 ovarian
OVCAR-4 ovarian = test system: OVCAR-4 ovarian
OVCAR-8 ovarian = test system: OVCAR-8 ovarian
SF-268 CNS = test system: SF-268 CNS
SF-295 CNS = test system: SF-295 CNS
SK-MEL-2 melanoma = test system: SK-MEL-2 melanoma
SK-MEL-5 melanoma = test system: SK-MEL-5 melanoma
SK-OV-3 ovarian = test system: SK-OV-3 ovarian
SN12C renal = test system: SN12C renal
SNB-75 CNS = test system: SNB-75 CNS
SR leukemia = test system: SR leukemia
SW-620 colon = test system: SW-620 colon
T-47D breast = test system: T-47D breast
UACC-257 melanoma = test system: UACC-257 melanoma
UACC-62 melanoma = test system: UACC-62 melanoma
A498 renal = test system: A498 renal
BT-549 breast = test system: BT-549 breast
CAKI-1 renal = test system: CAKI-1 renal
CCRF-CEM leukemia = test system: CCRF-CEM leukemia
DU-145 prostate = test system: DU-145 prostate
HCC-2998 colon = test system: HCC-2998 colon
K-562 leukemia = test system: K-562 leukemia
KM12 colon = test system: KM12 colon
MCF7 breast = test system: MCF7 breast
MDA-MB-435 = test system: MDA-MB-435
NCI-H226 lung = test system: NCI-H226 lung
NCI-H23 lung = test system: NCI-H23 lung
OVCAR-5 ovarian = test system: OVCAR-5 ovarian
RPMI-8226 leukemia = test system: RPMI-8226 leukemia
RXF 393 renal = test system: RXF 393 renal
SF-539 CNS = test system: SF-539 CNS
SK-MEL-28 melanoma = test system: SK-MEL-28 melanoma
SNB-19 CNS = test system: SNB-19 CNS
TK-10 renal = test system: TK-10 renal
U251 CNS = test system: U251 CNS
UO-31 renal = test system: UO-31 renal

For `CC(=O)OCC(=O)[C@@]1(O)CC[C@H]2[C@@H]3CCC4=CC(=O)C=C[C@]4(C)[C@@]3(F)[C@@H](O)C[C@@]21C`, the TGI (PC-3 prostate) was > 100 µM.

`c1ccc2c3nnc(c2c1)SCCSCCSc1nnc(c2ccccc12)SCCSCCS3` was tested, and the TGI (A549 NSCLC) was > 100 µM, the TGI (ACHN renal) was > 100 µM and the TGI (COLO 205 colon) was > 100 µM. For the same molecule, the TGI (EKVX NSCLC) was > 100 µM, the TGI (HCT-15 colon) was > 100 µM and the TGI (HOP-62 NSCLC) was > 100 µM. The TGI (HOP-92 NSCLC) was > 100 µM, the TGI (HS 578T breast) was > 100 µM and the TGI (HT29 colon) was > 100 µM. For the same molecule, the TGI (IGROV1 ovarian) was > 100 µM, the TGI (LOX IMVI melanoma) was > 100 µM and the TGI (M14 melanoma) was > 100 µM. For the same molecule, the TGI (MALME-3M melanoma) was > 100 µM, the TGI (MDA-MB-231 breast) was > 100 µM and the TGI (MOLT-4 leukemia) was > 100 µM. The TGI (NCI-H460 lung) was > 100 µM, the TGI (NCI-H522 lung) was > 100 µM and the TGI (NCI/ADR-RES ovarian) was > 100 µM. The TGI (OVCAR-3 ovarian) was > 100 µM, the TGI (OVCAR-4 ovarian) was > 100 µM and the TGI (OVCAR-8 ovarian) was > 100 µM. For the same molecule, the TGI (PC-3 prostate) was > 100 µM, the TGI (SF-268 CNS) was > 100 µM and the TGI (SF-295 CNS) was > 100 µM. For the same molecule, the TGI (SK-MEL-2 melanoma) was > 100 µM, the TGI (SK-MEL-5 melanoma) was > 100 µM and the TGI (SK-OV-3 ovarian) was > 100 µM. For the same molecule, the TGI (SN12C renal) was > 100 µM, the TGI (SNB-75 CNS) was > 100 µM and the TGI (SR leukemia) was > 100 µM. The TGI (SW-620 colon) was > 100 µM, the TGI (T-47D breast) was > 100 µM and the TGI (UACC-257 melanoma) was > 100 µM. The TGI (UACC-62 melanoma) was > 100 µM.

`O=C(CCN1CCCC1)Nc1ccc2c(NCCCc3ccccc3)c3ccccc3nc2c1` showed a GI50 (A498 renal) of 1.31 µM, a TGI (A498 renal) of 3.14 µM and a GI50 (ACHN renal) of 1.42 µM. The TGI (ACHN renal) was 2.8 µM, the GI50 (BT-549 breast) was 1.61 µM and the TGI (BT-549 breast) was 3.11 µM. The GI50 (CAKI-1 renal) was 14.8 µM, the TGI (CAKI-1 renal) was 28 µM and the GI50 (CCRF-CEM leukemia) was 0.562 µM. For the same molecule, the TGI (CCRF-CEM leukemia) was 3.03 µM, the GI50 (DU-145 prostate) was 0.886 µM and the TGI (DU-145 prostate) was 2.09 µM. It also gave a GI50 (EKVX NSCLC) of 1.21 µM, a TGI (EKVX NSCLC) of 2.56 µM and a GI50 (HCC-2998 colon) of 1.14 µM. For the same molecule, the TGI (HCC-2998 colon) was 2.43 µM, the GI50 (HCT-15 colon) was 2.62 µM and the TGI (HCT-15 colon) was 10.5 µM. The GI50 (HOP-92 NSCLC) was 0.875 µM, the TGI (HOP-92 NSCLC) was 2.24 µM and the GI50 (K-562 leukemia) was 0.945 µM. The TGI (K-562 leukemia) was 3.36 µM, the GI50 (KM12 colon) was 1.17 µM and the TGI (KM12 colon) was 2.54 µM. For the same molecule, the GI50 (LOX IMVI melanoma) was 0.739 µM, the TGI (LOX IMVI melanoma) was 2.04 µM and the GI50 (MALME-3M melanoma) was 1.58 µM. It also gave a TGI (MALME-3M melanoma) of 3.12 µM, a GI50 (MCF7 breast) of 0.467 µM and a TGI (MCF7 breast) of 1.8 µM. It also gave a GI50 (MDA-MB-231 breast) of 1.02 µM, a TGI (MDA-MB-231 breast) of 2.3 µM and a GI50 (MDA-MB-435) of 1.46 µM. For the same molecule, the TGI (MDA-MB-435) was 2.82 µM, the GI50 (NCI-H226 lung) was 1.27 µM and the TGI (NCI-H226 lung) was 2.83 µM. It also gave a GI50 (NCI-H23 lung) of 1.12 µM, a TGI (NCI-H23 lung) of 2.41 µM and a GI50 (NCI-H460 lung) of 0.46 µM. It also gave a TGI (NCI-H460 lung) of 1.6 µM, a GI50 (NCI-H522 lung) of 0.664 µM and a TGI (NCI-H522 lung) of 2.15 µM. The GI50 (NCI/ADR-RES ovarian) was 15.1 µM, the TGI (NCI/ADR-RES ovarian) was 71.9 µM and the GI50 (OVCAR-4 ovarian) was 0.812 µM. It also gave a TGI (OVCAR-4 ovarian) of 2.26 µM, a GI50 (OVCAR-5 ovarian) of 1.12 µM and a TGI (OVCAR-5 ovarian) of 2.4 µM. It also gave a GI50 (PC-3 prostate) of 0.566 µM, a TGI (PC-3 prostate) of 1.94 µM and a GI50 (RPMI-8226 leukemia) of 0.611 µM. It also gave a TGI (RPMI-8226 leukemia) of 3.63 µM, a GI50 (RXF 393 renal) of 0.918 µM and a TGI (RXF 393 renal) of 2.2 µM. The GI50 (SF-295 CNS) was 1.31 µM, the TGI (SF-295 CNS) was 2.59 µM and the GI50 (SF-539 CNS) was 1.24 µM. The TGI (SF-539 CNS) was 2.55 µM, the GI50 (SK-MEL-2 melanoma) was 1.69 µM and the TGI (SK-MEL-2 melanoma) was 3.24 µM. For the same molecule, the GI50 (SK-MEL-28 melanoma) was 1.77 µM, the TGI (SK-MEL-28 melanoma) was 3.25 µM and the GI50 (SK-MEL-5 melanoma) was 1.61 µM. For the same molecule, the TGI (SK-MEL-5 melanoma) was 2.97 µM, the GI50 (SN12C renal) was 0.815 µM and the TGI (SN12C renal) was 2.21 µM. The GI50 (SNB-19 CNS) was 0.729 µM, the TGI (SNB-19 CNS) was 2 µM and the GI50 (SNB-75 CNS) was 1.17 µM. It also gave a TGI (SNB-75 CNS) of 2.41 µM, a GI50 (SR leukemia) of 0.467 µM and a TGI (SR leukemia) of 2.55 µM. The GI50 (SW-620 colon) was 0.54 µM, the TGI (SW-620 colon) was 1.93 µM and the GI50 (T-47D breast) was 1.34 µM. For the same molecule, the TGI (T-47D breast) was 3.91 µM, the GI50 (TK-10 renal) was 1.66 µM and the TGI (TK-10 renal) was 3.41 µM. It also gave a GI50 (U251 CNS) of 1.04 µM, a TGI (U251 CNS) of 2.36 µM and a GI50 (UACC-257 melanoma) of 1.81 µM. It also gave a TGI (UACC-257 melanoma) of 3.64 µM, a GI50 (UACC-62 melanoma) of 1.54 µM and a TGI (UACC-62 melanoma) of 2.93 µM. For the same molecule, the GI50 (UO-31 renal) was 1.6 µM and the TGI (UO-31 renal) was 3.16 µM.
